Several values for one entry are separate records, joined by “and”; a condition that tells them apart may be missing. Equal values may be shown once. Marks after values point to notes of the source that are not given here.

In test [1] the test system is ligated 6th instar Indian stick insects (Carausius morosus). Briefly: Carbohydrate-mobilization (hypertrehalosemic) in vivo assay. The note with it: for Hemolymph carbohydrates, 90 min: 90 min after injection of 20 pmol peptide in 10 μl; for Hemolymph carbohydrates, 90 min / Hemolymph carbohydrates, Difference: neck-ligated 6th instar nymphs; for Hemolymph carbohydrates, Difference: 90 min minus 0 min, 20 pmol peptide in 10 μl injected; for Hemolymph carbohydrates, 0 min: before injection (0 min), 2 h after neck ligation, group later given 20 pmol peptide in 10 μl, 6th instar nymphs; for % Activity relative to the effect of Carmo-HrTH-II (metabolic): 20 pmol peptide injected, carbohydrate increase relative to Carmo-HrTH-II = 100, NS = no significant increase. The method, then: Sixth instar nymphs that were 1–2 days before molting were neck-ligated and used in the hypertrehalosemic in vivo assay as described in detail by [Gäde and Lohr (1982)]. Stock peptide solutions (5 pmol μl^–1) were diluted with distilled water to the desired concentration in 10 μl, which was injected into the stick insect nymphs.
In the first series of experiments, various doses of synthetic Carmo-HrTH-II and corpora cardiaca (CC) extract of C. morosus were used to determine the maximal hypertrehalosemic response of C. morosus. Hemolymph samples were taken from 17 to 18 days old 6th instar nymphs 2 h after they were neck-ligated and then 90 min after either CC extract or synthetic Carmo-HrTH-II was injected. Ligated nymphs injected with distilled water served as controls for handling stress. As depicted in Figures 1A,B, various doses of both Carmo-HrTH-II and CC extract increased the level of carbohydrates in the hemolymph in a dose-dependent manner. A dose of 0.04 pmol of synthetic Carmo-HrTH-II and the equivalent of 0.005 pairs of corpora cardiaca (pCC) were sufficient to give significant increases in hemolymph carbohydrates (p < 0.05). […] Doses of 0.1–0.5 pCC gave an average increase of 5.6 ± 0.6 mg carbohydrates ml^–1 hemolymph (Figure 1B); again, statistical analyses reveal no significant difference between the effect of these doses (p > 0.05).
Based on these pilot experiments, we selected a dose of 20 pmol for testing the analogs of Carmo-HrTH-II since such a dose of our lead compound, Carmo-HrTH-II had achieved maximal hypertrehalosemic activity.

In test [2] the test system is heart of neck-ligated Carausius morosus. Briefly: Semi-exposed heart bioassay (heart beat rate). The note with it: for % Activity relative to the effect of Carmo-HrTH-II (myotropic) / Heart rate, Difference: 20 pmol peptide in 150 μl; for % Activity relative to the effect of Carmo-HrTH-II (myotropic): heart rate increase relative to Carmo-HrTH-II = 100, NS = no significant increase; for Heart rate, Post-application: after application of 20 pmol peptide in 150 μl saline, average of first four counts; for Heart rate, Post-application / Heart rate, Pre-application: neck-ligated stick insects; for Heart rate, Pre-application: in saline before application, semi-exposed heart; for Heart rate, Difference: post- minus pre-application. In kind it is in vivo. The method, then:
The semi-exposed heart bioassay was carried out as described ([Marco et al., 2018]) with adult stick insects between 1 and 2 months old that were ligated at the neck. Briefly, a ventral incision of the abdomen exposed the ventral cavity with the internal organs; a few drops of stick insect saline (pH 6.6; 15 mM NaCl, 18 mM KCl, 7.5 mM CaCl2, 2 mM HEPES, 50 mM MgCl2, and 184 mM glucose according to [Ejaz and Lange, 2008]) were added to the exposed part. The semi-isolated heart preparation was viewed with a dissecting microscope (12-fold magnification), and the number of observed heart beats (contractions of the heart muscle) was counted during a fixed period using a manual tally counter and a timer. Once the heart had stabilized, saline was replaced with the test solution. For this the peptide stock solution of 5 pmol μl^–1 was diluted with stick insect saline to the desired concentration and a final volume of 150 μl was used for each test.
Heart rates under normal saline served as controls. The change in heart rate after the application of the test solution was calculated as an average of the first four counts and was compared to the average heart rates counted in saline before the application of the test solution. This comparison of change in heart rates was done for all the peptides tested.

Consider “Leu-Thr-Phe-Thr-Pro-Asn-Trp-Gly-Thr amide”, for which, in test [1], the “Hemolymph carbohydrates, 90 min” value stood at 9.5 ± 1.5 mg/mL; the “Hemolymph carbohydrates, Difference” value was 0.7 ± 1.3 mg/mL; the “Hemolymph carbohydrates, 0 min” value turned out to be 8.8 ± 1.7 mg/mL. Further, in test [2], the “% Activity relative to the effect of Carmo-HrTH-II (myotropic)” value is 58%; the “Heart rate, Post-application” value came out at 46 ± 5 beats min^−1; the “Heart rate, Pre-application” value is reported as 39 ± 6 beats min^−1; the “Heart rate, Difference” value turned out to be 7 ± 2 beats min^−1.
As for “[N-Ac]Ala-Leu-Thr-Phe-Thr-Pro-Asn-Trp-Gly-Thr amide [Carmo-HrTH-II: [N-Ac]Ala^1]”, in test [1], the “% Activity relative to the effect of Carmo-HrTH-II (metabolic)” value was found to be 28%; the “Hemolymph carbohydrates, 90 min” value turned out to be 10.6 ± 2.0 mg/mL; the “Hemolymph carbohydrates, Difference” value came out at 1.5 ± 1.1 mg/mL; the “Hemolymph carbohydrates, 0 min” value worked out at 9.0 ± 1.3 mg/mL. In addition, in test [2], the “Heart rate, Post-application” value stood at 39 ± 6 beats min^−1; the “Heart rate, Pre-application” value is listed as 39 ± 6 beats min^−1; the “Heart rate, Difference” value is 0 ± 0 beats min^−1.
As to “pGlu-Ala-Thr-Phe-Thr-Pro-Asn-Trp-Gly-Thr amide [Ala^2-Carmo-HrTH-II]”, in test [1], the “% Activity relative to the effect of Carmo-HrTH-II (metabolic)” value worked out at 100%; the “Hemolymph carbohydrates, 90 min” value stood at 16.8 ± 1.7 mg/mL; the “Hemolymph carbohydrates, Difference” value stood at 5.4 ± 1.7 mg/mL; the “Hemolymph carbohydrates, 0 min” value is 11.4 ± 2.3 mg/mL. In addition, in test [2], the “Heart rate, Post-application” value is 42 ± 5 beats min^−1; the “Heart rate, Pre-application” value was determined as 42 ± 7 beats min^−1; the “Heart rate, Difference” value was 0 ± 2 beats min^−1.
Consider “pGlu-Leu-Ala-Phe-Thr-Pro-Asn-Trp-Gly-Thr amide [Ala^3-Carmo-HrTH-II]”, for which, in test [1], the “Hemolymph carbohydrates, 90 min” value came to 11.1 ± 1.8 mg/mL; the “Hemolymph carbohydrates, Difference” value stood at 0.8 ± 1.6 mg/mL; the “Hemolymph carbohydrates, 0 min” value was 10.3 ± 2.4 mg/mL. Also, in test [2], the “% Activity relative to the effect of Carmo-HrTH-II (myotropic)” value is 16%; the “Heart rate, Post-application” value was found to be 40 ± 6 beats min^−1; the “Heart rate, Pre-application” value turned out to be 38 ± 6 beats min^−1; the “Heart rate, Difference” value amounted to 2 ± 1 beats min^−1.
With “pGlu-Leu-Asn-Phe-Thr-Pro-Asn-Trp amide [Pyrap-AKH, naturally-occurring AKH octapeptide bioanalog, reference compound]”, in test [1], the “Hemolymph carbohydrates, 90 min” value turned out to be 9.2 ± 1.8 mg/mL; the “Hemolymph carbohydrates, Difference” value was found to be 0.5 ± 1.0 mg/mL; the “Hemolymph carbohydrates, 0 min” value is 8.7 ± 1.8 mg/mL. Further, in test [2], the “% Activity relative to the effect of Carmo-HrTH-II (myotropic)” value worked out at 16%; the “Heart rate, Post-application” value was found to be 41 ± 4 beats min^−1; the “Heart rate, Pre-application” value is given as 39 ± 5 beats min^−1; the “Heart rate, Difference” value was determined as 2 ± 2 beats min^−1.
In the case of “pGlu-Leu-Asn-Phe-Thr-Pro-Asn-Trp-Gly-Ser amide [Phymo-AKH, naturally-occurring AKH decapeptide bioanalog, reference compound]”, in test [1], the “Hemolymph carbohydrates, 90 min” value is 10.5 ± 1.4 mg/mL; the “Hemolymph carbohydrates, Difference” value worked out at 0.9 ± 1.7 mg/mL; the “Hemolymph carbohydrates, 0 min” value is 9.6 ± 1.8 mg/mL. In test [2], the “% Activity relative to the effect of Carmo-HrTH-II (myotropic)” value came to 8%; the “Heart rate, Post-application” value was 38 ± 4 beats min^−1; the “Heart rate, Pre-application” value was 37 ± 3 beats min^−1; the “Heart rate, Difference” value is 1 ± 1 beats min^−1.
Regarding “pGlu-Leu-Asn-Phe-Thr-Pro-Asn-Trp-Gly-Thr amide [Locmi-AKH-I, naturally-occurring AKH decapeptide bioanalog, reference compound]”, in test [1], the “% Activity relative to the effect of Carmo-HrTH-II (metabolic)” value worked out at 19%; the “Hemolymph carbohydrates, 90 min” value stood at 9.9 ± 1.2 mg/mL; the “Hemolymph carbohydrates, Difference” value is 1.0 ± 1.2 mg/mL; the “Hemolymph carbohydrates, 0 min” value came to 8.9 ± 1.3 mg/mL. In test [2], the “% Activity relative to the effect of Carmo-HrTH-II (myotropic)” value stood at 25%; the “Heart rate, Post-application” value was 43 ± 4 beats min^−1; the “Heart rate, Pre-application” value came to 40 ± 4 beats min^−1; the “Heart rate, Difference” value is 3 ± 1 beats min^−1.
For “pGlu-Leu-Thr-Ala-Thr-Pro-Asn-Trp-Gly-Thr amide [Ala^4-Carmo-HrTH-II]”, in test [1], the “Hemolymph carbohydrates, 90 min” value was determined as 9.1 ± 2.4 mg/mL; the “Hemolymph carbohydrates, Difference” value was 0.5 ± 2.3 mg/mL; the “Hemolymph carbohydrates, 0 min” value was 8.6 ± 2.2 mg/mL. For the same substance, in test [2], the “Heart rate, Post-application” value is given as 41 ± 4 beats min^−1; the “Heart rate, Pre-application” value is 40 ± 4 beats min^−1; the “Heart rate, Difference” value is given as 1 ± 1 beats min^−1.
Take “pGlu-Leu-Thr-Phe-Ala-Pro-Asn-Trp-Gly-Thr amide [Ala^5-Carmo-HrTH-II]”: in test [1], the “Hemolymph carbohydrates, 90 min” value amounted to 10.1 ± 1.3 mg/mL; the “Hemolymph carbohydrates, Difference” value was -0.1 ± 0.1 mg/mL; the “Hemolymph carbohydrates, 0 min” value amounted to 10.2 ± 1.2 mg/mL. In test [2], the “Heart rate, Post-application” value is listed as 40 ± 7 beats min^−1; the “Heart rate, Pre-application” value came to 39 ± 7 beats min^−1; the “Heart rate, Difference” value amounted to 1 ± 2 beats min^−1.
Consider “pGlu-Leu-Thr-Phe-Thr-Ala-Asn-Trp-Gly-Thr amide [Ala^6-Carmo-HrTH-II]”, for which, in test [1], the “Hemolymph carbohydrates, 90 min” value was found to be 11.1 ± 0.9 mg/mL; the “Hemolymph carbohydrates, Difference” value was 1.6 ± 1.1 mg/mL; the “Hemolymph carbohydrates, 0 min” value worked out at 9.5 ± 1.2 mg/mL. Further, in test [2], the “Heart rate, Post-application” value stood at 43 ± 5 beats min^−1; the “Heart rate, Pre-application” value amounted to 43 ± 5 beats min^−1; the “Heart rate, Difference” value was found to be 0 ± 0 beats min^−1.
In the case of “pGlu-Leu-Thr-Phe-Thr-Pro-Ala-Trp-Gly-Thr amide [Ala^7-Carmo-HrTH-II]”, in test [1], the “% Activity relative to the effect of Carmo-HrTH-II (metabolic)” value was 13%; the “Hemolymph carbohydrates, 90 min” value stood at 12.0 ± 2.2 mg/mL; the “Hemolymph carbohydrates, Difference” value was determined as 0.7 ± 0.6 mg/mL; the “Hemolymph carbohydrates, 0 min” value worked out at 11.3 ± 2.0 mg/mL. Further, in test [2], the “Heart rate, Post-application” value was found to be 39 ± 4 beats min^−1; the “Heart rate, Pre-application” value is 39 ± 4 beats min^−1; the “Heart rate, Difference” value is listed as 0 ± 1 beats min^−1.
Turning to “pGlu-Leu-Thr-Phe-Thr-Pro-Asn-Ala-Gly-Thr amide [Ala^8-Carmo-HrTH-II]”, in test [1], the “Hemolymph carbohydrates, 90 min” value came to 8.3 ± 1.9 mg/mL; the “Hemolymph carbohydrates, Difference” value is -0.1 ± 1.3 mg/mL; the “Hemolymph carbohydrates, 0 min” value is 8.5 ± 2.1 mg/mL. Besides, in test [2], the “Heart rate, Post-application” value was 42 ± 4 beats min^−1; the “Heart rate, Pre-application” value came to 42 ± 5 beats min^−1; the “Heart rate, Difference” value is 0 ± 2 beats min^−1.
On to “pGlu-Leu-Thr-Phe-Thr-Pro-Asn-Trp amide [Peram-CAH-II, naturally-occurring AKH octapeptide bioanalog, reference compound]”, for which, in test [1], the “% Activity relative to the effect of Carmo-HrTH-II (metabolic)” value was 30% and 31%; the “Hemolymph carbohydrates, 90 min” value turned out to be 11.0 ± 1.1 mg/mL; the “Hemolymph carbohydrates, Difference” value was found to be 1.7 ± 2.0 mg/mL; the “Hemolymph carbohydrates, 0 min” value was found to be 9.3 ± 1.8 mg/mL.
Regarding “pGlu-Leu-Thr-Phe-Thr-Pro-Asn-Trp*-Gly-Thr amide [Carmo-HrTH-I, endogenous hormone isolated from C. morosus CC; Trp^8 C-mannosylated, reference compound]”, in test [1], the “% Activity relative to the effect of Carmo-HrTH-II (metabolic)” value was 91^b %; the “Hemolymph carbohydrates, 90 min” value came out at 12.9 ± 1.9 mg/mL; the “Hemolymph carbohydrates, Difference” value was determined as 4.9 ± 1.1 mg/mL; the “Hemolymph carbohydrates, 0 min” value is 8.0 ± 1.6 mg/mL. Also, in test [2], the “% Activity relative to the effect of Carmo-HrTH-II (myotropic)” value is listed as 108^b %; the “Heart rate, Post-application” value was 54 ± 2 beats min^−1; the “Heart rate, Pre-application” value was 41 beats min^−1 and 41 ± 4 beats min^−1; the “Heart rate, Difference” value is 13 ± 2 beats min^−1.

The values above are taken from article PMC7198766, “Structure-Activity Studies on the Hypertrehalosemic Hormone II of the Stick Insect Carausius morosus (Phasmatodea): Carbohydrate-Mobilization and Cardio-Stimulatory Activities” (Frontiers in Physiology, 2020).
